Measured values taken from patent publication US10272082B2, “Combination ALS therapy” (Cytokinetics, Inc., priority 2011, dated 2019).
Entries after “also recorded” stand apart in the source; their conditions may differ.

What was measured:
[1] = target: T1, CYP1A2 (Homo sapiens, UniProt P05177); experiment: Mechanism-based inhibition of human CYP1A2 in vitro; type: in vitro ADME
T1 sequence (P05177 1-516): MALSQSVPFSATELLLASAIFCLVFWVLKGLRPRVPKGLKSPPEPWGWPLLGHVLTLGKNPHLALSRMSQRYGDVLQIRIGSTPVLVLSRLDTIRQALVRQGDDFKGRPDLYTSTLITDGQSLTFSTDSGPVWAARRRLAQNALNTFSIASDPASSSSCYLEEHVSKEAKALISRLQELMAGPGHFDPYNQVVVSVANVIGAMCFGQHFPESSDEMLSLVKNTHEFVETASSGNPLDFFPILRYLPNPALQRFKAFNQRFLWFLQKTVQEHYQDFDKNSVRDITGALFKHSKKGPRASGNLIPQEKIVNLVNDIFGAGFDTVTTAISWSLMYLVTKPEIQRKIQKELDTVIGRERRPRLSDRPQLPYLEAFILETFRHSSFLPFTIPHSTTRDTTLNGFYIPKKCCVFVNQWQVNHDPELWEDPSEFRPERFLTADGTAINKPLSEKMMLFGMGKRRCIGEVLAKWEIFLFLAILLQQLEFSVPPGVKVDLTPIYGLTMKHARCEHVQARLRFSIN

[2] = Example 4: twice-daily dose titration regimen of CK-2017357 in patients with ALS; type: in vivo
From the text: Patients enrolled in this clinical study were randomized, double-blind, and placebo-controlled.
Placebo patients underwent a similar dummy dose titration to maintain the blind. FIG. 4 illustrates the study design.

[3] = Previous clinical experiments with CK-2017357 once a day in the morning; type: in vivo, human
From the text: In previous clinical experiments, 1-(ethylpropyl)-6-ethynylimidazo[4,5-b]pyrazin-2-ol (CK-2017357) has been administered once a day in the morning. While improvements in patient and investigator global assessments, muscle fatigability and pulmonary function have been observed in these studies, dizziness has been a dose-limiting adverse event in both healthy volunteers and in patients with ALS. This example examines whether the maximum tolerable total daily dose of CK-2017357 can be increased by dividing the daily dose into two portions (morning and evening), and beginning treatment with a low dose and titrating upward to a target of 250 mg twice daily.

[4] = ALS patients
[5] = clinical; settings: human, plasma, CK-2017357 Cmax, 14 days, ALS patients
[6] = system: human hepatic microsomes; settings: in vitro; high concentrations required; cited from earlier work
[7] = repeated single daily doses 125-375 mg

C#Cc1cnc2nc(O)n(C(CC)CC)c2n1 [CK-2017357, 6-Ethynyl-1-(pentan-3-yl)-1H-imidazo[4,5-b]pyrazin-2(3H)-one]
KI (inactivation) ([1]; read-out: K1 (inactivation constant)): 1900 nM
kinact ([1]; read-out: kinact (max rate constant for inactivation) (converted)): 0.000517 s⁻¹
safety and tolerability of twice-daily dose titration regimen ([2]; ALS patients): safe and well tolerated
ALSFRS-R score and MVV ([2]; CK-2017357 relative to placebo, ALS patients): Encouraging trends toward increases
patients in whom dizziness was self-limited ([2]; of 12 patients in whom it occurred): 6 patients
patients in whom dizziness was mild ([2]; of the 12 patients in whom it occurred): 10 patients
patients escalated to the highest total daily dose of 500 mg and completing three weeks of dosing ([2]; of the 21 patients randomized to CK-2017357, twice-daily titration, riluzole 50 mg QD): 14 patients
most commonly reported treatment-emergent adverse event ([2]; twice-daily dose titration 250-500 mg total daily, ALS patients): dizziness
dose-limiting adverse event ([3]; healthy volunteers and patients with ALS): dizziness
patient and investigator global assessments, muscle fatigability and pulmonary function ([3]; previous clinical experiments): improvements
dose dependence of CK-2017357 pharmacokinetics ([4]; 125, 250, 375 mg daily for 14 days): increased proportionally by dose; also recorded: predictable linear kinetics
adverse event frequencies in the presence of riluzole ([4]; at any dose of CK-2017357): not altered
plasma levels achieved steady state by [4, 7]: ≤ 8 days
time to reach steady state [4, 7]: ≤ 1 week
plasma level four hours after dosing on Day 8 higher than four hours after first dose on Day 1 ([4]; repeated single daily doses): approximately 70%
effect of riluzole on CK-2017357 Cmax / plasma levels ([4]; riluzole 50 mg daily vs none): no apparent effect of riluzole; also recorded: not affected
Cmax ([5]; 50 mg, CK-2017357 daily dose 125 (mg), On Riluzole (50 mg daily)): 6000 ng/mL
Cmax ([5]; 50 mg, CK-2017357 daily dose 250 (mg), On Riluzole (50 mg daily)): 8400 ng/mL
Cmax ([5]; 50 mg, CK-2017357 daily dose 375 (mg), On Riluzole (50 mg daily)): 13500 ng/mL
Cmax ([5]; 125 mg, CK-2017357 daily dose 125 (mg), No Riluzole): 4100 ng/mL
Cmax ([5]; 250 mg, CK-2017357 daily dose 250 (mg), No Riluzole): 7400 ng/mL
Cmax ([5]; 375 mg, CK-2017357 daily dose 375 (mg), No Riluzole): 12700 ng/mL

CN(C)CCC=C1c2ccccc2CCc2ccccc21 [amitriptyline]
inhibition of the metabolism of riluzole by human hepatic microsomes [6]: inhibition has been observed

CN(C)CCCN1c2ccccc2CCc2ccc(Cl)cc21 [clomipramine]
inhibition of the metabolism of riluzole by human hepatic microsomes [6]: inhibition has been observed

O=C(O)Cc1ccccc1Nc1c(Cl)cccc1Cl [diclofenac]
inhibition of the metabolism of riluzole by human hepatic microsomes [6]: inhibition has been observed

CO[C@]12C[C@@H](COC(=O)c3cncc(Br)c3)CN(C)[C@@H]1Cc1cn(C)c3cccc2c13 [nicergoline]
inhibition of the metabolism of riluzole by human hepatic microsomes [6]: inhibition has been observed
